Assays:
purified GC = assay: Purified enzyme assays of GC activity without exogenous cofactors; assay type: biochemical; settings: no exogenous activating cofactors
[1] = test system: wildtype and homozygous mutant N370S GC fibroblasts; assay: Chaperone activity: translocation of GC to the lysosome in fibroblasts; assay type: cell-based, human; settings: for amount of GC localized to the lysosome: 1 nM to 25 uM, five days incubation, wildtype and mutant fibroblasts; for lysosomal GC protein after treatment: 10 uM, wildtype and N370S GC fibroblasts, GC and LAMP1 antibody staining
[2] = target: T1, N370S glucocerebrosidase (GC) in tissue homogenate (Homo sapiens, UniProt P04062, N409S); assay type: biochemical; settings: for reduction of activity (fold, relative to 26ad): N370S tissue homogenate AC50 compared with parent quinazoline 26ad
T1 sequence (P04062 40-536 N409S): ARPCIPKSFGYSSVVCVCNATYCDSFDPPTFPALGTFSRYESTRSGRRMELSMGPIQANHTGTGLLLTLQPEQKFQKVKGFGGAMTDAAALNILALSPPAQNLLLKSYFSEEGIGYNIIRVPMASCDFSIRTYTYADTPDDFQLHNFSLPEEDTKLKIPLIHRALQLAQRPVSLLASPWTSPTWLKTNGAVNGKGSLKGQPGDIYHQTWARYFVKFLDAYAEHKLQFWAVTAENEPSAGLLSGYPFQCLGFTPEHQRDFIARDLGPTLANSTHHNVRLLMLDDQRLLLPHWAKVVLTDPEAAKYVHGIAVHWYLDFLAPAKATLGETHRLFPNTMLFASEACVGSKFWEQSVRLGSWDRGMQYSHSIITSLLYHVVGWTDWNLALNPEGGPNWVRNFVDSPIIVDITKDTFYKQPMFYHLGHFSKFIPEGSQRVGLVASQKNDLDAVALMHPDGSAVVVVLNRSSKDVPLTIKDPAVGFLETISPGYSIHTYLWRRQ

Row | reduction of activity (fold, relative to 26ad) [2] | Structure (SMILES) | amount of GC localized to the lysosome [1] | further results
1 | – | O=S(=O)(c1ccc(Cl)cc1)N1CCN(c2nc(-c3cccs3)nc3ccccc23)CC1 [Compound 10, 4-(4-(4-chlorophenylsulfonyl)piperazin-1-yl)-2-(thiophen-2-yl)quinazoline] | – | activity in purified enzyme assays of GC compared with tissue homogenate (purified GC): greatly diminished
2 | – | O=S(=O)(c1ccc2ccccc2c1)N1CCN(c2nc(-c3cccs3)nc3ccccc23)CC1 [Compound 14] | clear increase of the amount of GC localized to the lysosome | lysosomal GC protein after treatment [1]: increased lysosomal GC protein
3 | – | Cc1ccc(S(=O)(=O)N2CCN(c3nc(-c4cccs4)nc4ccccc34)CC2)cc1 [Compound 26ad, 4-(4-(4-methylphenylsulfonyl)piperazin-1-yl)-2-(thiophen-2-yl)quinazoline] | clear increase of the amount of GC localized to the lysosome | IC50 ([2]; "blue" GC enzyme assay, tissue homogenate): 320 nM
4 | – | COc1ccccc1S(=O)(=O)N1CCN(c2nc(-c3cccs3)nc3ccccc23)CC1 [Compound 26ai, 4-(4-(2-methoxyphenylsulfonyl)piperazin-1-yl)-2-(thiophen-2-yl)quinazoline] | clear increase of the amount of GC localized to the lysosome | –
5 | – | O=S(=O)(c1ccc2c(c1)OCCO2)N1CCN(c2nc(-c3cccs3)nc3ccccc23)CC1 [Compound 26bs, 4-(4-(2,3-dihydrobenzo[b][1,4]dioxin-6-ylsulfonyl)piperazin-1-yl)-2-(thiophen-2-yl)quinazoline] | clear increase of the amount of GC localized to the lysosome | –
6 | at least 10 times | Cc1ccc(S(=O)(=O)N2CCN(c3nc(-c4cccs4)nc4cccnc34)CC2)cc1 [Compound 72, 2-(thiophen-2-yl)-4-(4-tosylpiperazin-1-yl)pyrido[3,2-d]pyrimidine] | – | –
7 | at least 10 times | Cc1ccc(S(=O)(=O)N2CCN(c3nc(-c4cccs4)nc4ncccc34)CC2)cc1 [Compound 73, 2-(thiophen-2-yl)-4-(4-tosylpiperazin-1-yl)pyrido[2,3-d]pyrimidine] | – | –
8 | 32 times | Cc1ccc(S(=O)(=O)N2CCN(c3ccnc(-c4cccs4)n3)CC2)cc1 [Compound 74, 2-(thiophen-2-yl)-4-(4-tosylpiperazin-1-yl)pyrimidine] | – | –
9 | 10 times | Cc1ccc(S(=O)(=O)N2CCN(c3nc(-c4cccs4)nc(C)c3C)CC2)cc1 [Compound 76, 4,5-dimethyl-2-(thiophen-2-yl)-6-(4-tosylpiperazin-1-yl)pyrimidine] | – | –
10 | – | OC[C@H]1CNC[C@@H](O)[C@@H]1O [Isofagomine, reference compound] | – | lysosomal GC protein after treatment [1]: increased lysosomal GC protein
